# Reference: article PMC3124785 (ACS chemical neuroscience, 2011)
# pKi: −log10 of the molar value. Entries after “also recorded” stand apart in the source; their conditions may differ. Where two headings read alike, the source gives them in different places.
# Tests used:
# primary cortical neurons = details: for effect of GPR30 antagonist G15 on neuroprotection: G15 100 nM pre-treatment, test compounds 100 nM; for neuroprotection against OGD by BT-SERM analogs and derivatives: all 100 nM, MTT assay; for neuroprotection against OGD at lower concentrations: 1 μM or below; for effect of G15 on neuroprotection by antioxidants / sulforaphane: G15 pre-treatment (-45 min); for neuroprotection against OGD by antioxidants / sulforaphane: concentration series; for neuroprotection against OGD, initial screen of BT-SERMs: BT-SERMs 100 nM; for concentration giving equivalence to E2 (10 nM) in neuroprotection: MTT cell viability assay, 2 h OGD, 24 h reperfusion
# ER = molecular target: T1, ER (Homo sapiens, UniProt P03372); details: Fig. 1; cited from earlier work
# T1 sequence (P03372 1-595): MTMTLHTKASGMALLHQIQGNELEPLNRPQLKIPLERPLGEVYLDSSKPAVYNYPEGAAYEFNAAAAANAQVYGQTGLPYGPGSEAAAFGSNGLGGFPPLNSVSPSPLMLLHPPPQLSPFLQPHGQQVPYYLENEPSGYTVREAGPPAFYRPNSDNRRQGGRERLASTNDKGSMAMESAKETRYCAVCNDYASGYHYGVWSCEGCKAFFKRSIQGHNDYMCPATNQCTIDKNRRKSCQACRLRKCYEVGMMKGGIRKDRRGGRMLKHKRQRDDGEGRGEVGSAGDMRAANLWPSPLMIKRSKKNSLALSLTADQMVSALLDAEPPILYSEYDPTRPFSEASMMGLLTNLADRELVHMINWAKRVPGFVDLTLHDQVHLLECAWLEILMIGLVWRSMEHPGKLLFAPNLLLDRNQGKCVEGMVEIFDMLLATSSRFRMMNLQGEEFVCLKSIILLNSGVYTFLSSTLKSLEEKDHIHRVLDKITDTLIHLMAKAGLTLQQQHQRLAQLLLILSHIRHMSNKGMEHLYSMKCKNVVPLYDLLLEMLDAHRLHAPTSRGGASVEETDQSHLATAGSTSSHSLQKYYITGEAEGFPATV
# ERβ = details: cited from earlier work
# ERα = details: cited from earlier work
# iNOS = details: read-out: Ki iNOS; cited from earlier work
structure (smiles),measurement,setting,value
"Oc1cccc(-c2cn(-c3cccc(O)c3)nn2)c1 [3,3-TDP]",effect of GPR30 antagonist G15 on neuroprotection,primary cortical neurons; E2 10 nM,GPR30-dependent
same,neuroprotection against OGD by BT-SERM analogs and derivatives,primary cortical neurons,neuroprotective
"Oc1ccc(-c2cn(-c3ccc(O)cc3)nn2)cc1 [4,4-TDP]",neuroprotection against OGD by BT-SERM analogs and derivatives,primary cortical neurons,no neuroprotective activity
"Cc1cc(C(C)(C)C)c(O)c(C(C)(C)C)c1 [BHT, butylated hydroxtoluene]",neuroprotection against OGD at lower concentrations,primary cortical neurons; MTT and LDH,neuroprotective
same,effect of G15 on neuroprotection by antioxidants / sulforaphane,primary cortical neurons,insensitive to antagonism by G15
same,neuroprotection against OGD by antioxidants / sulforaphane,primary cortical neurons; MTT and LDH,neuroprotective
same,effect in OGD neurons at higher concentration,"primary cortical neurons; higher concentration (10 μM), MTT and LDH",neurotoxicity; also recorded: neurotoxic
"Oc1ccc(-c2cc3ccc(O)cc3s2)cc1 [BTC, 2-(4-hydroxyphenyl)-benzo[b]thiophen-6-ol]",ER activity in cell culture,ER,ER agonist activity
same,ER subtype selectivity,"ERβ; ERβ versus ERα, Fig. 1",selectivity for ERβ
same,"neuroprotection against OGD, initial screen of BT-SERMs",primary cortical neurons; MTT and LDH,active
same,effect of G15 on neuroprotection by antioxidants / sulforaphane,primary cortical neurons,did not inhibit neuroprotection
"Oc1ccc(-c2sc3cc(O)ccc3c2Oc2ccc(OCCN3CCCCC3)cc2)cc1 [DMA, [6-hydroxy-3-[4-[2-(1-piperidinyl)-ethoxy]phenoxy]-2-(4-hydroxyphenyl)]benzo[b]thiophene]",binding to ERβ,ERβ,high affinity
same,"neuroprotection against OGD, initial screen of BT-SERMs",primary cortical neurons; MTT and LDH,neuroprotective
same,concentration giving equivalence to E2 (10 nM) in neuroprotection,primary cortical neurons,28 nM
same,binding to ERα,ERα,high affinity
"C[C@]12CC[C@@H]3c4ccc(O)cc4CC[C@H]3[C@@H]1CC[C@@H]2O [E2, 17β-estradiol]",effect of GPR30 antagonist G15 on neuroprotection,primary cortical neurons; E2 10 nM,blocked neuroprotection
same,effect of ER antagonist ICI 182 780 on neuroprotection,"primary cortical neurons; ICI 1 μM 45 min prior to OGD, SERMs 100 nM, E2 10 nM",block E2 mediated neuroprotection
same,greater cell death in the vehicle treated group than the E2 treated group,"primary cortical neurons; OGD 2 h, recovery 24 h",30-40%
same,neuroprotection against OGD by estrogens,"primary cortical neurons; estrogens 10 nM, E2-BSA 10 ng/mL, MTT and LDH",neuroprotective
"Oc1ccc(Oc2c(-c3ccc(F)cc3)sc3cc(O)ccc23)cc1 [HP-BTF, 2-(4-fluorophenyl)-3-(4-hydroxyphenoxy)benzo[b]thiophen-6-ol]",effect of GPR30 antagonist G15 on neuroprotection,primary cortical neurons; E2 10 nM,GPR30-dependent
same,neuroprotection against OGD by BT-SERM analogs and derivatives,primary cortical neurons,neuroprotective
"COC(=O)[C@@H](N)CCCNC(N)=N[N+](=O)[O-] [L-NAME, L-nitro-arginine methyl ester]",effect of L-NAME on neuroprotection,"primary cortical neurons; L-NAME 100 μM, alone or in combination with estrogen and SERMs",no significant effect
N=C(NCCC[C@H](N)C(=O)O)N[N+](=O)[O-] [N^G-nitro-L-arginine],pKi,iNOS,5.40
"O=C(c1ccc(OCCN2CCCCC2)cc1)c1c(-c2ccc(O)cc2)sc2cc(O)ccc12 [Ral, raloxifene]","neuroprotection against OGD, initial screen of BT-SERMs",primary cortical neurons; MTT and LDH,neuroprotective
same,concentration giving equivalence to E2 (10 nM) in neuroprotection,primary cortical neurons,68 nM
same,concentration giving equivalence to E2 (10 nM) in neuroprotection,primary cortical neurons; listed as raloxifene,62 nM
"Cc1ccc(C(=O)c2c(-c3ccc(O)cc3)sc3cc(O)ccc23)cc1 [Tol-BTC, (6-hydroxy-2-(4-hydroxyphenyl)benzo[b]thiophen-3-yl)(p-tolyl)methanone]",neuroprotection against OGD by BT-SERM analogs and derivatives,primary cortical neurons,neuroprotective
Cc1c(C)c2c(c(C)c1O)CCC(C)(C(=O)O)O2 (centres unmarked) [Trolox],effect of G15 on neuroprotection by antioxidants / sulforaphane,primary cortical neurons,did not inhibit neuroprotection; also recorded: insensitive to antagonism by G15
same,neuroprotection against OGD by antioxidants / sulforaphane,primary cortical neurons; MTT and LDH,neuroprotective; also recorded: concentration dependent neuroprotection
COc1ccc(-c2sc3cc(O)ccc3c2Oc2ccc(OCCN3CCCCC3)cc2)cc1 [arzoxifene],"neuroprotection against OGD, initial screen of BT-SERMs",primary cortical neurons; MTT and LDH,inactive
"O=C(CCCCCC(=O)c1c(-c2ccc(O)cc2)sc2cc(O)ccc12)c1c(-c2ccc(O)cc2)sc2cc(O)ccc12 [bisBTChd, 1,7-bis(6-hydroxy-2-(4-hydroxyphenyl)benzo[b]thiophen-3-yl)heptane-1,7-dione]",neuroprotection against OGD by BT-SERM analogs and derivatives,primary cortical neurons,neuroprotective
"CC(C)c1c(-c2ccc(O)cc2)sc2cc(O)ccc12 [iPr-BTC, 2-(4-hydroxyphenyl)-3-isopropylbenzo[b]thiophen-6-ol]",neuroprotection against OGD by BT-SERM analogs and derivatives,primary cortical neurons,neuroprotective
C[S+]([O-])CCCCN=C=S (centres unmarked) [sulforaphane],neuroprotection against OGD at lower concentrations,primary cortical neurons; MTT and LDH,neuroprotection
same,neuroprotection against OGD at lower concentrations,"primary cortical neurons; MTT and LDH, listed as Sulforaphane",neuroprotective
same,effect of G15 on neuroprotection by antioxidants / sulforaphane,primary cortical neurons,did not inhibit neuroprotection; also recorded: insensitive to antagonism by G15
